# Data taken from patent US4058659A, “6,8-Disubstituted purine derivatives of 9-β-D-ribofuranosyl 3',5'-cyclic phosphate” (ICN Pharmaceuticals, Inc., priority 1975, dated 1977).
# Experiments:
# [1] = test system: isolated cat papillary muscle; assay: Positive inotropic effect: % change in contractile force in isolated cat papillary muscle
# [2] = test system: renal and mesenteric blood flow; assay: Renal and mesenteric blood flow in anesthetized dogs; type: in vivo, dog
# [3] = test system: intact anesthetized dog (myocardial contractility); assay: In vivo positive inotropic effect (dP/dT max) in the intact anesthetized dog; conditions: i.v. infusion 1 mg/kg per min
# Method: (§1) The measurement dP/dT max was used as the index of change in myocardial contractility (inotropism). Compound 12 was given as an intravenous infusion at the rate of 1 mg/kg per min. in total single doses of 1.0 to 10.0 mg/kg and the values are expresses as percent of control.
# In Vivo Positive Inotropic Effect
# Measurement of myocardial contractility (inotropism)
# using dP/dT max (% of control) as index of measurement of inotropic
# unanesthetized dogs = assay: Inotropic effect in unanesthetized dogs; type: in vivo, dog; conditions: compared with anesthetized dogs
# Method: as §1
substance,measurement,setting,value
"8-(Benzylthio)-6-(diethylamino)-9-β-D-ribofuranosylpurine 3',5'-CyclicPhosphate [Compound 12]",% change in Contractile Force (CF),[1]; 1.0 μg/ml,3.8%
same,% change in Contractile Force (CF),[1]; 3.1 μg/ml,8.0%
same,% change in Contractile Force (CF),[1]; 10.0 μg/ml,12.7%
same,% change in Contractile Force (CF),[1]; 31.0 μg/ml,27.0%
same,% change in Contractile Force (CF),[1]; 100 μg/ml,46.0%
same,% change in Contractile Force (CF),[1]; 310 μg/ml,56.0%
same,positive inotropic effect,"[1]; statement in words, isolated cat papillary muscle",exhibit positive inotropic effect
same,mesenteric blood flow,[2],increase in renal and mesenteric blood flow
same,renal blood flow,[2],increase in renal and mesenteric blood flow
same,dP/dT max (% of control),"[3]; 1.0 mg/kg, 1 minute after infusion",120%
same,dP/dT max (% of control),"[3]; 1.0 mg/kg, 3 minutes after infusion",120%
same,dP/dT max (% of control),"[3]; 1.0 mg/kg, 5 minutes after infusion",130%
same,dP/dT max (% of control),"[3]; 1.0 mg/kg, 15 minutes after infusion",110%
same,dP/dT max (% of control),"[3]; 3.1 mg/kg, 1 minute after infusion",200%
same,dP/dT max (% of control),"[3]; 3.1 mg/kg, 3 minutes after infusion",180%
same,dP/dT max (% of control),"[3]; 3.1 mg/kg, 5 minutes after infusion",160%
same,dP/dT max (% of control),"[3]; 3.1 mg/kg, 15 minutes after infusion",140%
same,dP/dT max (% of control),"[3]; 3.1 mg/kg, 30 minutes after infusion",105%
same,dP/dT max (% of control),"[3]; 10.0 mg/kg, 1 minute after infusion",210%
same,dP/dT max (% of control),"[3]; 10.0 mg/kg, 3 minutes after infusion",200%
same,dP/dT max (% of control),"[3]; 10.0 mg/kg, 5 minutes after infusion",180%
same,dP/dT max (% of control),"[3]; 10.0 mg/kg, 15 minutes after infusion",140%
same,dP/dT max (% of control),"[3]; 10.0 mg/kg, 30 minutes after infusion",100%
same,inotropic effect in unanesthetized dogs,unanesthetized dogs,same inotropic effect
